Values after ≈ are worked out from the molar mass of the structure shown. Like-named read-outs stand apart in the source and are kept apart here. Marks after values point to notes of the source that are not given here.
Legend:
[1] = Aqueous solubility determination (Multiscreen solubility filter plate, UV/vis); type: physicochemical; conditions: universal aqueous buffer, pH 7.4, aqueous buffer, kinetic from dmso stock, universal aqueous buffer pH 7.4, 90 min, room temperature
Protocol: Aqueous Solubility Determination. The following procedure was used to obtain the aqueous solubility results summarized in Example 8. Step 1. Determination of optimal UV/vis wavelengths and generation of standard curves for a compound of interest: • (1) For eight standard calibration curves (one plate), prepare 34 mL of 50:50 (v:v) universal buffer:acetonitrile in a 50 mL tube. • (2) Using a multichannel pipet, dispense (in μL) the buffer:acetonitrile in a deep well plate as follows:
• (6) Cover plate with lid and shake (200-300 rpm) at room temperature for 20 minutes. • (7) Mix all wells by pipetting up and down 10 times. • (8) Transfer 120 μL from each well to a UV transparent plate. Cover and shake for 3-5 minutes. Remove any bubbles in the wells using a pipet. • (9) Read from 220 nm to 500 nm at 10 nm increments on a spectrophotometer (e.g., SpectraMax®).
Step 2. Compound Solubility Testing Procedures Using the Millipore™ Multiscreen® Solubility Filter Plate.
Universal Aqueous Buffer: • (a) To prepare 500 mL of universal buffer, add the following: 250 mL Nanopure water; 1.36 mL (45 mM) ethanolamine; 3.08 g (45 mM) potassium dihydrogen phosphate; 2.21 g (45 mM) potassium acetate; thoroughly mix. • (b) Adjust pH to 7.4 with HCl and q.s. to 500 mL with 0.15 M KCl. • (c) Filter to remove particulates and reduce bacterial growth. • (d) Store at 4° C. in the dark.
Solubility Protocol: • (a) Add 285 μL of Universal Aqueous Buffer to desired wells of the Millipore™ Multiscreen® Solubility filter plate. • (b) Add 15 μL of 10 mM compound in DMSO to the appropriate wells. Add 15 μL of 100% DMSO only to 6 wells of the filter plate for blanks. • (c) Using a multichannel pipet, mix wells by pipetting up and down 10 times. Be careful not to touch the filters in the plate with the tips. • (d) Cover and gently shake (200-300 rpm) filter plate for 90 minutes at room temperature. • (e) Vacuum filter the aqueous solution from the Multiscreen® solubility filter plate into a polypropylene V-bottom plate. • (f) Transfer 60 μL of filtrate to a UV transparent plate (Greiner® UV-Star Analysis Plate). • (g) Add 60 μL of acetonitrile to each well and mix by pipetting up and down 10 times. • (h) Cover and gently shake for 3-5 minutes. Remove any bubbles with a pipet. • (i) Measure the absorbance of each well in the plate on the spectrophotometer (UV/vis) at the desired wavelength. For compounds in a plate with different absorbance peaks, set the spectrophotometer to read a spectrum (e.g., from 220 nm to 460 nm). • (j) Identify concentration using measured absorbance for each compound and the predetermined standard curve (see Step 1).

[2] = system: HO-1; assay: Nrf2 target gene induction, HO-1 mRNA (qPCR); type: cell-based, human; conditions: MDA-MB-435 cells
Protocol: FIGS. 17-20. Induction of HO-1. MDA-MB-435 human melanoma cells were treated with vehicle (DMSO) or the indicated compounds and concentrations for 16 hours. HO-1 mRNA levels were quantified using qPCR and were normalized relative to a DMSO-treated sample run in parallel. Values are averages of duplicate wells.
(§1) FIG. 21. Induction of HO-1, TrxR1 and γ-GCS. MDA-MB-435 human melanoma cells were treated with vehicle (DMSO) or the indicated compounds and concentrations for 16 hours. HO-1, thioredoxin reductase-1 (TrxR1), and γ-glutamylcysteine synthetase (γ-GCS) mRNA levels were quantified using qPCR and were normalized relative to a DMSO-treated sample run in parallel. Values are averages of duplicate wells.
(§2) Nrf2 target gene induction. MDA-MB-435 human melanoma cells were treated with vehicle (DMSO) or the indicated compounds and concentrations for 16 hours. HO-1, thioredoxin reductase-1 (TrxR1), γ-glutamylcysteine synthetase (γ-GCS), and ferritin heavy chain mRNA levels were quantified using qPCR and were normalized relative to a DMSO-treated sample run in parallel. Values are averages of duplicate wells. Primer sequences are as follows.

[3] = system: thioredoxin reductase-1 (TrxR1); assay: Nrf2 target gene induction, TrxR1 mRNA (qPCR); type: cell-based, human; conditions: MDA-MB-435 cells, 400 nM; percent of induction observed for 402
Protocol: as §1
FIG. 22. Induction of TrxR1. MDA-MB-435 human melanoma cells were treated with vehicle (DMSO) or the indicated compounds and concentrations for 16 hours. Thioredoxin reductase-1 (TrxR1) mRNA levels were quantified using qPCR and were normalized relative to a DMSO-treated sample run in parallel. Values are averages of duplicate wells. Compounds 401, 402-19 and 402-53 are comparison compounds (see Example 1).
as §2

[4] = system: IFNγ-induced NO production in RAW264.7 macrophages; assay: Suppression of IFNγ-induced NO production (Griess reagent); type: cell-based, mouse; conditions: RAW264.7, 20 ng/ml IFNγ 24 h, 2 h pre-treatment
Protocol: (§3) FIGS. 1-8 and 32-34. Inhibition of NO Production. RAW264.7 macrophages were pre-treated with DMSO or drugs at various concentrations (nM) for 2 hours, then treated with 20 ng/ml IFNγ for 24 hours. NO concentration in media was determined using a Griess reagent system; cell viability was determined using WST-1 reagent.
(§4) Nitric Oxide production and cell viability. RAW264.7 macrophages were pre-treated with DMSO or drugs for 2 hours, then treated with recombinant mouse IFNγ (Sigma) for 24 hours. NO concentration in media was determined using the Griess reagent system (Promega). Cell viability was determined using WST-1 reagent (Roche).

[5] = system: RAW264.7 macrophages; assay: Cell viability, WST-1 reagent; type: cell-based, mouse; conditions: RAW264.7 (20 ng/ml IFNγ)
Protocol: as §3, §4

[6] = system: mice; conditions: sesame oil, N=4
[7] = system: γ-glutamylcysteine synthetase (γ-GCS); assay: Nrf2 target gene induction, γ-GCS mRNA (qPCR); type: cell-based, human; conditions: MDA-MB-435 cells
Protocol: as §1
FIG. 23. Induction of γ-GCS. MDA-MB-435 human melanoma cells were treated with vehicle (DMSO) or the indicated compounds and concentrations for 16 hours. γ-glutamylcysteine synthetase (γ-GCS) mRNA levels were quantified using qPCR and were normalized relative to a DMSO-treated sample run in parallel. Values are averages of duplicate wells.
as §2

[8] = system: NQO1; assay: Nrf2 target gene induction, NQO1; type: cell-based, human; conditions: MDA-MB-435 cells, 250 nM; fold induction above DMSO control
[9] = 400 nM, percent of induction observed for 402
[10] = 250 nM, fold induction above DMSO control

Row | SMILES | solubility at 90 min [1] [µM] | IC50 ([4]; Mus musculus) [nM] | IC50 ([5]; Mus musculus) [nM] | HO-1 induction [2, 10] [fold] | NQO1 induction [8] [fold] | also measured
1 | COC(=O)[C@]12CCC(C)(C)C[C@H]1[C@H]1C(=O)C=C3[C@@]4(C)C=C(C#N)C(=O)C(C)(C)[C@@H]4CC[C@@]3(C)[C@]1(C)CC2 [Compound 402, reference compound] | 1.46 (≈ 0.738 µg/mL) |  |  |  |  | 
2 | CC1(C)CC[C@]2(C(=O)O)CC[C@]3(C)[C@H](C(=O)CC4[C@@]5(C)C=C(C#N)C(=O)C(C)(C)[C@@H]5CC[C@]43C)[C@@H]2C1 (stereo partly drawn) [Compound 63196, (4aS,6aR,6bR,8aR,12aR,14aR,14bS)-11-cyano-2,2,6a,6b,9,9,12a-heptamethyl-10,14-dioxo-1,2,3,4,4a,5,6,6a,6b,7,8,8a,9,10,12a,12b,13,14,14a,14b-icosahydropicene-4a-carboxylic acid] |  | ~75 | > 200 |  |  | HO-1 induction [2, 9]: 1%; TrxR1 induction [3]: 48%; Number of Deaths ([6]; oral gavage QDx14, 10 mg/kg): 0; Number of Deaths ([6]; oral gavage QDx14, 50 mg/kg): 1*; Number of Deaths ([6]; oral gavage QDx14, 100 mg/kg): 0; Number of Deaths ([6]; oral gavage QDx14, 250 mg/kg): 1; γ-GCS induction [7, 9]: 26%
3 | CC1(C)CC[C@]2(CO)CC[C@]3(C)[C@H](C(=O)C[C@@H]4[C@@]5(C)C=C(C#N)C(=O)C(C)(C)[C@@H]5CC[C@]43C)[C@@H]2C1 [Compound 63202] | 1.89 (≈ 0.907 µg/mL) |  |  |  |  | 
4 | CC1(C)CC[C@]2(C(N)=O)CC[C@]3(C)[C@H](C(=O)CC4[C@@]5(C)C=C(C#N)C(=O)C(C)(C)[C@@H]5CC[C@]43C)[C@@H]2C1 (stereo partly drawn) [Compound 63205, (4aS,6aR,6bR,8aR,12aR,14aR,14bS)-11-cyano-2,2,6a,6b,9,9,12a-heptamethyl-10,14-dioxo-1,2,3,4,4a,5,6,6a,6b,7,8,8a,9,10,12a,12b,13,14,14a,14b-icosahydropicene-4a-carboxamide] |  | ~25 | > 200 | 1.7 | 1.7 | γ-GCS induction [7, 10]: 3.5 fold
5 | CC1(C)CC[C@]2(C=O)CC[C@]3(C)[C@H](C(=O)CC4[C@@]5(C)C=C(C#N)C(=O)C(C)(C)[C@@H]5CC[C@]43C)[C@@H]2C1 (stereo partly drawn) [Compound 63206, (4aR,6aR,6bR,8aS,12aS,12bR,14bR)-8a-formyl-4,4,6a,6b,11,11,14b-heptamethyl-3,13-dioxo-3,4,4a,5,6,6a,6b,7,8,8a,9,10,11,12,12a,12b,13,14,14a,14b-icosahydropicene-2-carbonitrile] |  | ~10 | > 200 | 2.5 | 1.8 | γ-GCS induction [7, 10]: 4.5 fold
6 | COC(=O)[C@]12CCC(C)(C)C[C@H]1[C@H]1[C@H](O)C[C@@H]3[C@@]4(C)C=C(C#N)C(=O)C(C)(C)[C@@H]4CC[C@@]3(C)[C@]1(C)CC2 [Compound 63207] |  |  |  | 1.2 | 1.6 | IC50 [4]: ~50 nM; IC50 [5]: > 200 nM; γ-GCS induction [7, 10]: 3.1 fold
7 | CC1(C)CC[C@]2(CN)CC[C@]3(C)[C@H](C(=O)C[C@@H]4[C@@]5(C)C=C(C#N)C(=O)C(C)(C)[C@@H]5CC[C@]43C)[C@@H]2C1 [Compound 63214] | 112 (≈ 53.7 µg/mL) |  |  |  |  | 
8 | COC(=O)[C@]12CCC(C)(C)C[C@H]1[C@H]1[C@@H](O)C[C@@H]3[C@@]4(C)C=C(C#N)C(=O)C(C)(C)[C@@H]4CC[C@@]3(C)[C@]1(C)CC2 [Compound 63219] | 13.6 (≈ 6.92 µg/mL) | ~150 | > 200 |  |  | 
9 | CC1(C)CC[C@]2([C@@H](O)CO)CC[C@]3(C)[C@H](C(=O)C[C@@H]4[C@@]5(C)C=C(C#N)C(=O)C(C)(C)[C@@H]5CC[C@]43C)[C@@H]2C1 [Compound 63221] | 8.78 (≈ 4.48 µg/mL) |  |  |  |  | 
10 | CC1(C)CC[C@]2(CNC(=O)C(F)(F)F)CC[C@]3(C)[C@H](C(=O)C[C@@H]4[C@@]5(C)C=C(C#N)C(=O)C(C)(C)[C@@H]5CC[C@]43C)[C@@H]2C1 [Compound 63226] | 0.71 (≈ 0.408 µg/mL) |  |  |  |  | 
11 | CC1(C)CC[C@]2(CCO)CC[C@]3(C)[C@H](C(=O)C[C@@H]4[C@@]5(C)C=C(C#N)C(=O)C(C)(C)[C@@H]5CC[C@]43C)[C@@H]2C1 [Compound 63231] | 1.23 (≈ 0.607 µg/mL) |  |  |  |  | 
12 | Cc1cc(CNC[C@]23CCC(C)(C)C[C@H]2[C@H]2C(=O)C[C@@H]4[C@@]5(C)C=C(C#N)C(=O)C(C)(C)[C@@H]5CC[C@@]4(C)[C@]2(C)CC3)no1 [Compound 63232] | 0.75 (≈ 0.43 µg/mL) |  |  |  |  | 
13 | CC1(C)CC[C@]23CC[C@@]4(C)[C@]5(C)CC[C@H]6C(C)(C)C(=O)C(C#N)=C[C@]6(C)[C@H]5CC(=O)[C@@]4([C@@H]2C1)N(CC(F)(F)F)C3=O [Compound 63237] | 5.16 (≈ 2.96 µg/mL) | ~80 | > 200 | 3 | 2.3 | γ-GCS induction [7, 10]: 6.4 fold
14 | CC1(C)CC[C@]2(C#N)CC[C@]3(C)[C@H](C(=O)CC4[C@@]5(C)C=C(C#N)C(=O)C(C)(C)[C@@H]5CC[C@]43C)[C@@H]2C1 (stereo partly drawn) [Compound 63252, (4aR,6aR,6bR,8aS,12aS,12bR,14bR)-4,4,6a,6b,11,11,14b-heptamethyl-3,13-dioxo-3,4,4a,5,6,6a,6b,7,8,8a,9,10,11,12,12a,12b,13,14,14a,14b-icosahydropicene-2,8a-dicarbonitrile] |  | ~5 | > 200 | 5 | 3 | 
